According to article PMC6180429 (Organic & Biomolecular Chemistry, 2018):

Tests used:
[1] = target: T1, PPARγ (peroxisome proliferator-activated receptor γ) (Homo sapiens, UniProt P37231); experiment: Gal4-PPARγ-LBD one-hybrid luciferase reporter assay in HEK293 cells (partial agonist); format: cell-based
T1 construct: gene PPARG
T1 sequence (P37231 232-505 limits assumed): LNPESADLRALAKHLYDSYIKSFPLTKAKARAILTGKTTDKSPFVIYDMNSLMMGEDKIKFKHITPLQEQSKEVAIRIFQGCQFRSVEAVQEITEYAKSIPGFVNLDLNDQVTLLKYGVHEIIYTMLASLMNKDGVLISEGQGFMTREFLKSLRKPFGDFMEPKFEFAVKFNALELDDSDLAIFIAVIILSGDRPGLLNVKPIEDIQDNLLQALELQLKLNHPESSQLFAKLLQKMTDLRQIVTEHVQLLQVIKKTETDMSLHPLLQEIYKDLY

[2] = target: T1, PPARγ (peroxisome proliferator-activated receptor γ); experiment: Gal4-PPARγ reporter assay in HEK293 cells, antagonism of […] pioglitazone; format: cell-based

| EC50 [1] [nM] | SMILES | Gal4-PPARγ reporter assay in HEK293 cells, antagonism of 10 μM pioglitazone [2] |
| --- | --- | --- |
| 1070 | C=CCc1ccc(O)c(-c2cc(CC=C)c(CCC/C=C\Cc3ccc(O)cc3)cc2O)c1 [III, Sesqui magnolol A] | – |
| 770 | C=CCc1ccc(O)c(-c2cc(C/C=C\CCCc3cc(O)ccc3CC=C)ccc2O)c1 [IV, Sesqui magnolol B] | – |
| – | C=CCc1ccc(O)cc1CCC/C=C\Cc1ccc(O)cc1 [V, Truncated magnolol dimer] | V showed a dose-dependent inhibition of the pioglitazone induced PPARγ-Gal4 activation. |
